Where “and” joins values, the source holds several entries; their conditions need not be identical. Equal values may be shown once. Read-outs that look alike come from different tables or passages of the source. Marks after values point to notes of the source that are not given here.
Experiments:
Plasma stability, human = assay type: in vitro ADME; conditions: for Remaining percentage: after 30 minutes, 5 μM, 37° C.; for plasma stability: human plasma
Experimental: The pH of the plasma was checked and recorded. Note: a.
The final concentration of solvent was 0.5%.
The assay is performed in duplicate.

Plasma stability, dog = conditions: for Remaining percentage: after 30 minutes
Experimental: (§1) The frozen plasma was immediately melted in a water bath of 37° C. The plasma was centrifuged at 3, 220 g for 10 minutes to remove the blood clots and the supernatant was collected into a new test tube. The pH of the plasma was checked and recorded. Note: a. Only plasma that has been melted no more than twice since arrival was used; b. Only plasma in the range of pH 7 to pH 8 was used.
(§2) 1 mM of working solutions of the test compound and the control compound mevinolin were prepared in DMSO. 1 mM of the working solution of the control compound solution in […] was prepared in acetonitrile. 4 μL of the working solution was added to 796 μL of pre-incubated plasma to achieve 5 μM of final concentration. The final concentration of solvent was 0.5%.
(§3) The aliquots of 50 μL of the standard addition plasma were added to new test tubes and incubated in the water bath of 37° C. at approximately 60 rpm for 2 hours. The assay is performed in duplicate. At the end of the two hour incubation, 300 μL of quenched solution at room temperature (acetonitrile containing internal standards (acetonitrile, 100 nM Alprazolam, 500 nM Labetalol and 2 μM ketoprofen)) was added to terminate the reaction. Samples at time 0 were prepared by adding 50 μL of standard addition plasma to the new test tubes with 300 μL of quenched solution at room temperature. The test tubes were mixed by vortex for 5 minutes. The samples in the plates were centrifuged at 3, 220×g for 30 minutes at 4° C. to precipitate the proteins. 100 μL of supernatant was transferred to a new plate. The supernatant was diluted with 100 μL of water, mixed well and analysed using LC-MS/MS.

Plasma stability, rat = conditions: for Remaining percentage (%) / Remaining percentage: Rat plasma; for Remaining percentage: after 30 minutes
Experimental: as §1, §2
as §3, with “The aliquots of 50 μL of the standard addition plasma were added to new test tubes and incubated in the water bath of 37° C. at approximately 60 rpm for 2 hours.” left out

[1] = system: DLD-1 WT (wild type) cells; experiment: Clonogenic assay, DLD-1 WT; assay type: cell-based; conditions: for IC90: Homo sapiens, 3 h
Experimental: The following PSN-1 cells, PANC1 cells, MiaPaCa-2 cells, H460 cells, DLD-1 WT (wild type) cells, DLD-1 BRCA2 KO (BRCA2 deletion) cells were seeded in 10 cm vitreous cell culture plates at specific cell numbers and incubated for 2 days at 37° C. and under the conditions of 5% CO2, 95% air and 100% relative humidity. On day 3, test compounds TH302 or AST-002-P2 at the specific concentrations were added to the cells, and incubated for 3 hours together with the cells under normoxic (21% O2) and hypoxic conditions (<0.01% O2), respectively. After cells were stimulated by compounds, the cells were washed once with 1×PBS and digested into single cells with pancreatic enzymes for cell counting. The above cells in specific cell numbers were reseeded in a new culture plate and cultured for 7 days to perform single cell colony formation. When single cells in compound culture plates stimulated under normoxic conditions proliferated to about 50 cells, the cultures were removed and stained with 0.5% crystal violet for 40 minutes. After staining, cells were counted for colonies using Colony Counter (VWR) and the IC90 was calculated.

[2] = Blood-brain barrier experiment, brain and plasma concentrations after IV dosing; assay type: in vivo, CD-1 mice; conditions: CD-1, mouse; for Kp at 0.25 h / Kp at 2 h: brain/plasma, iv, 1 mg/kg; for Kp at 0.25 h: read-out: Mean Ratio (Brain/Plasma); for Kp at 2 h: single animals, read-out: Ratio (Brain/Plasma); for Cmax / Tmax: brain tissue; for Cmax / Tmax / AUC: IV 1 mg/kg; for AUC: plasma
[3] = 21% O2, read-out: IC90 Normoxia
[4] = <0.01% O2, read-out: IC90 Hypoxia

With `O=[N+]([O-])c1ccc(C(OP(=O)(N2CC2)N2CC2)C(F)(F)F)c2ccccc12` (racemic) [Compound A] the “Remaining percentage (%)” value (Plasma stability, human; Human plasma, 15 min) was 108 ± 0.773%, the “Remaining percentage (%)” value (Plasma stability, human; Human plasma, 60 min) was 99.2 ± 3.39% and the “Remaining percentage (%)” value (Plasma stability, human; Human plasma, 90 min) was 93.8 ± 3.12%. The “Remaining percentage (%)” value (Plasma stability, human; Human plasma, 120 min) was 89.7% and 89.7 ± 4.43%, the “Remaining percentage (%)” value (Plasma stability, human; Human plasma, 2 h time course, 0 min) was 100% and the Remaining percentage (Plasma stability, human; Human plasma) was 68.68%. The t½ (Plasma stability, human; Human plasma, in vitro) was >373* min, the half-life at 5 µM (Plasma stability, human; Human plasma, in vitro, read-out: t½) was greater than 6.22 h and the “Remaining percentage (%)” value (Plasma stability, human; Human plasma, time course, 30 min) was 102 ± 3.85%. For the same molecule, the “plasma stability” value (Plasma stability, human) was “stable”, the “Remaining percentage (%)” value (Plasma stability, dog; Dog plasma, 15 min) was 107 ± 2.54% and the “Remaining percentage (%)” value (Plasma stability, dog; Dog plasma, 60 min) was 101 ± 5.20%. For the same molecule, the “Remaining percentage (%)” value (Plasma stability, dog; Dog plasma, 90 min) was 105 ± 3.67%, the “Remaining percentage (%)” value (Plasma stability, dog; Dog plasma, 120 min) was 98.9% and 98.9 ± 0.476% and the “Remaining percentage (%)” value (Plasma stability, dog; Dog plasma, 2 h time course, 0 min) was 100%. For the same molecule, the Remaining percentage (Plasma stability, dog; Dog plasma) was 85.04%, the t½ (Plasma stability, dog; Dog plasma, in vitro) was >373* min and the “Remaining percentage (%)” value (Plasma stability, dog; Dog plasma, time course, 30 min) was 105 ± 1.27%. The half-life at 5 µM (Plasma stability, dog; dog plasma) was greater than 6.22 h, the “plasma stability” value (Plasma stability, dog; dog plasma) was “stable” and the “Remaining percentage (%)” value (Plasma stability, rat; 15 min) was 101 ± 1.33%. The “Remaining percentage (%)” value (Plasma stability, rat; 60 min) was 88.9 ± 0.537%, the “Remaining percentage (%)” value (Plasma stability, rat; 90 min) was 84.6 ± 1.20% and the “Remaining percentage (%)” value (Plasma stability, rat; 120 min) was 69.0% and 69.0 ± 1.10%. The “Remaining percentage (%)” value (Plasma stability, rat; 2 h time course, 0 min) was 100%, the Remaining percentage (Plasma stability, rat) was 52.11% and the “Remaining percentage (%)” value (Plasma stability, rat; time course, 30 min) was 100 ± 2.23%. The half-life at 5 µM (Plasma stability, rat; rat plasma) was 3.77 h and the “plasma stability” value (Plasma stability, rat; rat plasma) was “unstable”.
In the case of `O=[N+]([O-])c1ccc([C@@H](OP(=O)(N2CC2)N2CC2)C(F)(F)F)c2ccccc12` (single isomer, unassigned) [Compound C], the IC90 [1, 3] is reported as greater than 140 nM, the IC90 [1, 4] is reported as greater than 140 nM and the Kp at 0.25 h [2] is reported as 0.86. The Kp at 2 h [2] was 1.35, the Cmax [2] was 445 ng/g and the Tmax [2] was 4.8 min. It also gave an AUC [2] of 190 ng·h/mL.
`O=[N+]([O-])c1ccc([C@H](OP(=O)(N2CC2)N2CC2)C(F)(F)F)c2ccccc12` [Compound B] gave a Kp at 0.25 h [2] of 1.59, a Kp at 2 h [2] of 1.38 and a Cmax [2] of 983 ng/g. The Tmax [2] was 4.8 min and the AUC [2] was 289 ng·h/mL.
For `CC(OP(=O)(N1CC1)N1CC1)c1ccc([N+](=O)[O-])c2ccccc12` (centres unmarked) [Compound D], the Remaining percentage (Plasma stability, human; Human plasma) was 97.06%, the “plasma stability” value (Plasma stability, human) was “secondarily” and the Remaining percentage (Plasma stability, dog; Dog plasma) was 91.95%. The “plasma stability” value (Plasma stability, dog; dog plasma) was “relatively stable”, the Remaining percentage (Plasma stability, rat) was 85.49% and the “plasma stability” value (Plasma stability, rat; rat plasma) was “relatively unstable”.
Molecule `Cn1c(COP(=O)(NCCBr)NCCBr)cnc1[N+](=O)[O-]` [TH-302, Evofosfamide] has an IC90 [1, 3] of 26200 nM, an IC90 [1, 4] of 210 nM and an HCR ([1]; IC90 ratio normoxic/N2) of 125.

— patent US20230339991A1, “HYPOXIA-ACTIVATED DNA ALKYLATING AGENT AND MEDICAL USE THEREOF” (ASCENTAWITS PHARMACEUTICALS, LTD., priority 2020, published 2023)
